# According to ChEMBL document CHEMBL5729205, “Rho-associated protein kinase inhibitor, pharmaceutical composition comprising same, and preparation method and use thereof” (2022):
# Molecular target: Rho-associated protein kinase 2 (Homo sapiens, UniProt O75116)
# Assay: Biological Assay: The kinase IC50 was determined by a commercialized CISBIO kinase detection kit, HTRF KinEASE-STK S2 kit (62ST2PEC). ROCK2 (01-119) employed in the reaction was purchased from Carna Biosciences.Before the assay, the following working solutions as needed were formulated with corresponding reagents according to the instruction of the kinase detection kit: 1×kinase buffer, 5×STK-52 substrate working solution (1.5 μM) and 5×ATP working solution (1.5 μM), 5×ROCK2 kinase working solution, 4×Streptavidin-XL665 working solution, and 4×STK-Ab-Cryptate 2 detection solution. Then the assay was performed according to the following procedure.A solution of a compound at a concentration of 10000 nM was prepared with the 1×kinase buffer containing 2.5% DMSO. Gradient dilution of the solution of the compound was performed with the kinase buffer containing DMSO, so as to obtain solutions of a test compound at 9 different concentrations. In addition to wells of test compounds, a positive well (containing all the reagents except the compound) and a negative well (containing all the reagents except the test compound and kinase) were set. Except for the control wells (positive and negative wells), a solution of a test compound (4 μL) was added to each of the reaction wells, and a solution of 2.5% DMSO was added to the control wells. Then the substrate (2 μM, i.e., 2 μL. 5×STK-S2 substrate working solution) was added to each of the reaction wells. The 5×ROCK2 kinase working solution (2 μL, containing 1.4 ng ROCK2 kinase) was added to each of the reaction wells except for the negative well, the volume of which was made up with the 1×kinase buffer (2 μL). The 5×ATP working solution (2 μL) was added to each of the reaction wells, and the mixtures were incubated at room temperature for 2 hours. After the kinase reaction was complete, the 4×Streptavidin-XL665 working solution was added to each of the reaction wells, the solutions were mixed, followed by immediate addition of the 4×STK-Ab-Cryptate 2 detection solution (5 μL), and the mixtures were incubated at room temperature for 1 hour. The fluorescence signal was read on ENVISION (Perkinelmer) (excitation wavelength: 320 nm, and emission wavelength: 665 nm and 615 nm). The inhibitory rate in each well was calculated based on the fluorescence intensity value: ER (Emission Ratio)=(fluorescence intensity at 665 nm/fluorescence intensity at 615 nm); inhibitory rate=(ERpositive−ERtest compound)/(ERpositive−ERnegative)*100%. Curves were plotted and fitted to obtain the median inhibitory concentration (IC50) of each teat compound with the PRISM 5.0 software.
# Chain of Rho-associated protein kinase 2 (O75116 whole entry): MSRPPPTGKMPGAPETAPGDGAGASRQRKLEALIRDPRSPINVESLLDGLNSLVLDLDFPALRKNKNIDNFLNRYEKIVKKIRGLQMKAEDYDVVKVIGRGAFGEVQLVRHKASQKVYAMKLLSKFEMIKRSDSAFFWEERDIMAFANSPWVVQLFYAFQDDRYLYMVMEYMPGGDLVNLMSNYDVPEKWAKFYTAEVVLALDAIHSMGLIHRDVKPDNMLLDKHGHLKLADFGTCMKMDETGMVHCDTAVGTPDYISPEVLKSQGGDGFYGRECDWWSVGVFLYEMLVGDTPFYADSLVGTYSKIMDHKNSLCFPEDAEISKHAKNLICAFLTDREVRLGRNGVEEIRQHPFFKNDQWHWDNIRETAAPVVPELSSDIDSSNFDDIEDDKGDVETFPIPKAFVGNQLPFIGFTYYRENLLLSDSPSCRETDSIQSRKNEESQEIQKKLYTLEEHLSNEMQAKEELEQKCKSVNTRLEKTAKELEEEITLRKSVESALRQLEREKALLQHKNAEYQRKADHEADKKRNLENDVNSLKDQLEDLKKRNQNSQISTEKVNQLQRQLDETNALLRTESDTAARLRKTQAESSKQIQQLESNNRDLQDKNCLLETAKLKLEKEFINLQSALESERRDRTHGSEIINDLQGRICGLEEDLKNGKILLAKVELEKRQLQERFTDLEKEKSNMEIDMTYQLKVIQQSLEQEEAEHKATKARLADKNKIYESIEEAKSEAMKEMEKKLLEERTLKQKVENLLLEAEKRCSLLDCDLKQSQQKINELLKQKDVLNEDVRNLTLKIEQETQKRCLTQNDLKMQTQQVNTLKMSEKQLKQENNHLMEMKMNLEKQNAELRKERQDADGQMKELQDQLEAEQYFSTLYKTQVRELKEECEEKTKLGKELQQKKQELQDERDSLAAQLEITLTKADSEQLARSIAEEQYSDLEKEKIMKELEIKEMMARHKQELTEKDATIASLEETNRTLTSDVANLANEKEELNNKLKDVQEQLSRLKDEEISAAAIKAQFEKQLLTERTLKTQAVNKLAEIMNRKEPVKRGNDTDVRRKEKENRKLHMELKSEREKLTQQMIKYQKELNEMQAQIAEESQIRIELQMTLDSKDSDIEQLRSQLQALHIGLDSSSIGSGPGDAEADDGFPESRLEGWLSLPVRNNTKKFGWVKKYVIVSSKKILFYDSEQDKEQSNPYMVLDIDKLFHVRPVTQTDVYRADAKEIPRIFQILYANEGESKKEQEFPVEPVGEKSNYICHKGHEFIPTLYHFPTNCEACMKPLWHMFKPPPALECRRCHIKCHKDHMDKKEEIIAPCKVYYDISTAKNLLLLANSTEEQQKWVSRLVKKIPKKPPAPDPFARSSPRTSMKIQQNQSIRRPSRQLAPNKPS
row,IC50 [nM],SMILES
1,159,O=C(c1cc2ccc(-c3nccc(Nc4ccc(-c5cn[nH]c5)cc4)n3)cc2n1CC(F)F)N1CC(F)(F)C1
2,240,N=C(N)N1CCC2(CC1)CCN(C(=O)c1cc3ccc(-c4nccc(Nc5ccc6[nH]ncc6c5)n4)cc3[nH]1)CC2
3,4,Cn1c(C(=O)N2CC(F)(F)C2)cc2ccc(-c3nc4c(c(Nc5ccc(-c6cn[nH]c6)cc5)n3)CNC4)cc21
4,355,COCCn1c(C(=O)N2CC(F)(F)C2)cc2ccc(-c3nccc(Nc4ccc(-c5cn[nH]c5)cc4)n3)cc21
5,412,O=C(c1cc2ccc(-c3nccc(Nc4ccc5[nH]ncc5c4)n3)cc2[nH]1)N1CC2CNCC2C1 (centres undefined)
6,39,O=C(C1CC(F)(F)C1)N1Cc2ccc(-c3cncc(Nc4ccc(-c5cn[nH]c5)cc4)n3)cc2C1
7,34,Cn1c(C(=O)N2CC(F)(F)C2)cc2ccc(-c3nccc(Nc4ccc(-c5cn[nH]c5)cc4O)n3)cc21
8,162,O=C(C1CCOCC1)N1Cc2ccc(-c3ncc(F)c(Nc4ccc(-c5cn[nH]c5)cc4)n3)cc2C1
9,255,COCn1c(C(=O)N2CC(F)(F)C2)cc2ccc(-c3ncc(F)c(Nc4ccc(-c5cn[nH]c5)cc4)n3)cc21
10,114,O=C(Oc1ccccc1)N1Cc2ccc(-c3nccc(Nc4ccc(-c5cn[nH]c5)cc4)n3)cc2C1
11,331,CC1(C(=O)N2CCc3ccc(-c4ncc(F)c(Nc5ccc(-c6cn[nH]c6)cc5)n4)cc3C2)CC(F)(F)C1
12,29,O=C(C1CC(F)(F)C1)N1Cc2ccc(-c3nc(Nc4ccc(-c5cn[nH]c5)cc4)c4[nH]ccc4n3)cc2C1
13,90,C[C@@H](NC(=O)c1cc2ccc(-c3nccc(Nc4ccc5[nH]ncc5c4)n3)cc2[nH]1)c1ccc(C(F)(F)F)nc1
14,76,Cn1ccc2nc(-c3ccc4cc(C(=O)N5CC(F)(F)C5)n(C)c4c3)nc(Nc3ccc(-c4cn[nH]c4)cc3)c21
15,19,Cc1cnc(-c2ccc3cc(C(=O)N4CC(F)(F)C4)n(C)c3c2)nc1Nc1ccc(-c2cn[nH]c2)cc1
16,130,O=C(C1CC(F)(F)C1)N1CCc2cc(-c3nccc(Nc4ccc(-c5cn[nH]c5)cc4)n3)ccc2C1
17,27,COCn1c(C(=O)N2CC(F)(F)C2)cc2ccc(-c3nc4c(c(Nc5ccc(-c6cn[nH]c6)cc5)n3)CNC4)cc21
18,129,O=C(C1CC(F)(F)C1)N1Cc2ccc(-c3nc(Nc4ccc5[nH]ncc5c4)c4sccc4n3)cc2C1
19,322,C#CC1CN(C(=O)c2cc3ccc(-c4nccc(Nc5ccc(-c6cn[nH]c6)cc5)n4)cc3n2C)C1
20,10,O=C(C1CC(F)(F)C1)N1Cc2ccc(-c3nc4c(c(Nc5ccc(-c6cn[nH]c6)cc5)n3)CNC4)cc2C1
21,19,O=C(OC1CC(F)(F)C1)N1Cc2ccc(-c3nccc(Nc4ccc5[nH]ncc5c4)n3)cc2C1
22,22,CC1(C(=O)N2Cc3ccc(-c4nccc(Nc5ccc(-c6cn[nH]c6)cc5)n4)cc3C2)CC(F)(F)C1

row,IC50 [nM],SMILES
1,393,O=C(c1cccnc1)N1Cc2ccc(-c3nccc(Nc4ccc(-c5cn[nH]c5)cc4)n3)cc2C1
2,40,CN1Cc2nc(-c3ccc4c(c3)CN(C(=O)C3CC(F)(F)C3)C4)nc(Nc3ccc(-c4cn[nH]c4)cc3)c2C1
3,350,CC(C)NC(=O)c1cc2ccc(-c3nc(Cc4ccccc4)cc(Nc4ccc5[nH]ncc5c4)n3)cc2[nH]1
4,240,O=C(c1cc2ccc(-c3nccc(Nc4ccc(-c5cn[nH]c5)cc4)n3)cc2[nH]1)N1CCCC1
5,14,O=C(NC1CCN(c2ccncc2Cl)CC1)c1cc2ccc(-c3nccc(Nc4ccc5[nH]ncc5c4)n3)cc2[nH]1
6,118,CCn1c(C(=O)N2CC(F)(F)C2)cc2ccc(-c3nccc(Nc4ccc(-c5cn[nH]c5)cc4)n3)cc21
7,214,O=C(N1CCc2ccc(-c3nccc(Nc4ccc(-c5cn[nH]c5)cc4)n3)cc2C1)N1CC(F)(F)C1
8,14,CN1Cc2nc(-c3ccc4cc(C(=O)N5CC(F)(F)C5)n(C)c4c3)nc(Nc3ccc(-c4cn[nH]c4)cc3)c2C1
9,93,Cc1[nH]ncc1-c1ccc(Nc2nc(-c3ccc4c(c3)CN(C(=O)C3CC(F)(F)C3)C4)ncc2F)cc1
10,39,Cn1c(C(=O)N2CC(F)(F)C2)cc2ccc(-c3nccc(Nc4ccc(-c5cn[nH]c5)cn4)n3)cc21
11,477,O=C(C1CCC(F)(F)CC1)N1CCc2ccc(-c3ncc(F)c(Nc4ccc(-c5cn[nH]c5)cc4)n3)cc2C1
12,313,O=C(c1ccncc1)N1Cc2ccc(-c3nccc(Nc4ccc(-c5cn[nH]c5)cc4)n3)cc2C1
13,27,Cn1c(C(=O)N2CC(F)(F)C2)cc2ccc(-c3nccc(Nc4ccc(-c5cn[nH]c5)nc4)n3)cc21
14,60,O=C(C1CC(F)(F)C1)N1Cc2ccc(-c3nc(Nc4ccc(-c5cn[nH]c5)cc4)c4sccc4n3)cc2C1
15,214,O=C(C1CC(F)(F)C1)N1CCc2ccc(-c3nccc(Nc4ccc(-c5cn[nH]c5)cc4)n3)cc2C1
16,23,COc1cnc(-c2ccc3cc(C(=O)N4CC(F)(F)C4)[nH]c3c2)nc1Nc1ccc(-c2cn[nH]c2)cc1
17,69,O=C(OC1CC(F)(F)C1)N1Cc2ccc(-c3ncc(F)c(Nc4ccc(-c5cn[nH]c5)cc4)n3)cc2C1
18,18,O=C(C1CC(F)(F)C1)N1Cc2ccc(-c3nc(Nc4ccc(-c5cn[nH]c5)cc4)c4occc4n3)cc2C1
19,427,COCn1c(C(=O)N2CC(F)(F)C2)cc2ccc(-c3ncnc(Nc4ccc(-c5cn[nH]c5)cc4)n3)cc21
20,10,Cn1c(C(=O)N2CC(F)(F)C2)cc2ccc(-c3nc4c(c(Nc5ccc(-c6cn[nH]c6)cc5)n3)COC4)cc21
21,80,Cn1c(C(=O)N2CC(F)(F)C2)cc2ccc(-c3nc(Nc4ccc(-c5cn[nH]c5)cc4)c4occc4n3)cc21
22,21,COc1cc(-c2cn[nH]c2)ccc1Nc1ccnc(-c2ccc3c(c2)CN(C(=O)C2CC(F)(F)C2)C3)n1
